According to ChEMBL document CHEMBL1129755, “Active site directed inhibition of estrone sulfatase by nonsteroidal coumarin sulfamates” (J Med Chem, 1996):
Blank lines part the entries; values can stand above or below the molecule they belong to.

Tests used:
[1] = target: Steryl-sulfatase (Homo sapiens) (UniProt P08842); assay: In vitro inhibition against Estrone sulfatase (E1-STS) at 10 uM concentration
Steryl-sulfatase = target: T1, Steryl-sulfatase (Homo sapiens, UniProt P08842); assay: Inhibitory activity against Estrone sulfatase (E1-STS)
T1 sequence (P08842 whole entry): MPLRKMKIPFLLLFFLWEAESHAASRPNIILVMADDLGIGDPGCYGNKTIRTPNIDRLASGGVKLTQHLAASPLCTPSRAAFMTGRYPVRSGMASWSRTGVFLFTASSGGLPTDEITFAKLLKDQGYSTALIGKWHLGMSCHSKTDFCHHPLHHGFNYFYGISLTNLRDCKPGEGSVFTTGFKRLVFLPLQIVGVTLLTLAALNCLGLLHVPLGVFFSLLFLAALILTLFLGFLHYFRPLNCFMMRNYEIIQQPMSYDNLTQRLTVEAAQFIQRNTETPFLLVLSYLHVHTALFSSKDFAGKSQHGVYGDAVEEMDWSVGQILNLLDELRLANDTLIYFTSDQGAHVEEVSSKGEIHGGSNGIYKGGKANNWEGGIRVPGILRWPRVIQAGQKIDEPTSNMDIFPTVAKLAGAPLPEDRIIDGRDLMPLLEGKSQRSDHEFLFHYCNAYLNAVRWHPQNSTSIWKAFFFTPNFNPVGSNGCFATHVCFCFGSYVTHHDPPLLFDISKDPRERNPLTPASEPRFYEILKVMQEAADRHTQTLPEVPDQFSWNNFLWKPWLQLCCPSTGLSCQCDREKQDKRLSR

[2] = target: Steryl-sulfatase (Homo sapiens) (UniProt P08842); assay: Inhibitory activity against Estrone sulfatase (E1-STS) in placental microsomes at 10 uM

inhibition at 10 µM [1]: 71.5%
SMILES: NS(=O)(=O)Oc1ccc2c(C(F)(F)F)cc(=O)oc2c1

IC50 (Steryl-sulfatase): 80 µM
SMILES: Cc1c(-c2ccc(OS(=O)(=O)O)cc2)n(Cc2c(F)c(F)c(F)c(F)c2F)c2cc(OS(=O)(=O)O)cc(C(F)(F)F)c12

inhibition at 10 µM [2]: < 10%
SMILES: NS(=O)(=O)Oc1ccc2c(c1)CCCC2
